{"source": "patent US20110118239A1", "about": "“PREPARATION AND ENANTIOMERIC SEPARATION OF 7-(3-PYRIDINYL)-1,7-DIAZASPIRO[4.4]NONANE AND NOVEL SALT FORMS OF THE RACEMATE AND ENANTIOMERS” (Targacept, Inc., priority 2008, published 2011)", "key": {"[1]": {"assay": "Dynamic vapor sorption (DVS) analysis", "type": "physicochemical", "description": "In a dynamic vapor sorption (DVS) apparatus, a sample of (R)-7-(3-pyridinyl)-1,7-diazaspiro[4.4]nonane mono-p-hydroxybenzoate (˜14.1 mg) was subjected to gradually increasing, followed by then gradually decreasing, humidity over a period of about 10 h (see details below). […] Given its relatively high melting point and crystalline nature, it is therefore a particularly good candidate for drug development."}, "Rat α7": {"biological_target": "Rat α7 (Rattus norvegicus, UniProt Q05941)", "sequence (Q05941 23-502)": "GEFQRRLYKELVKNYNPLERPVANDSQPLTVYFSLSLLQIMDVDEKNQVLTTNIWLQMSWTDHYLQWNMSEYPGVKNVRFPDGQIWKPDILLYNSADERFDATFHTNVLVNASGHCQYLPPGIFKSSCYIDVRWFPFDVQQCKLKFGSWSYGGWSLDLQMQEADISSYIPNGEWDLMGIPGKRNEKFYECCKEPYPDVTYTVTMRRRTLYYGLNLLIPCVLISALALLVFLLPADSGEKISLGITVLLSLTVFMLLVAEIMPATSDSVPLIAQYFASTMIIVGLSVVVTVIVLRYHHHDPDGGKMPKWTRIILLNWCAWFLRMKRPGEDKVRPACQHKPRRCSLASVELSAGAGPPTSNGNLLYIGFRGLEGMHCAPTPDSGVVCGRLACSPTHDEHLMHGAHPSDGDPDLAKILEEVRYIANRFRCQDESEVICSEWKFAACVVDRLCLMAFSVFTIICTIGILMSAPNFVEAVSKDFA", "assay": "Binding to rat α7 NNR (Ki)", "conditions": "read-out: Rat α7 Ki", "description": "(§1) Binding and function of the compounds to relevant receptor sites was determined in accordance with the techniques described in PCT WO 2008/057938. Inhibition constants (Ki values), reported in nM, were calculated from the IC50 values using the method of Cheng et al., Biochem. Pharmacol. 22: 3099 (1973). […] Thus, the compounds of the present invention are selective modulators of the α4β2 NNR subtype."}, "Human Ganglion": {"biological_target": "Human Ganglion (Homo sapiens, UniProt P30926+P32297)", "assay": "Function at human ganglion subtype, single point 100 μM", "type": "cell-based", "description": "as §1"}, "[2]": {"system": "animal models of depression and anxiety", "assay": "Validated animal models of depression and anxiety (summary statement)", "conditions": "in vivo"}, "Human α4β2": {"biological_target": "Human α4β2 (Homo sapiens, UniProt P17787+P43681)", "sequence (P43681 29-627 limits assumed)": "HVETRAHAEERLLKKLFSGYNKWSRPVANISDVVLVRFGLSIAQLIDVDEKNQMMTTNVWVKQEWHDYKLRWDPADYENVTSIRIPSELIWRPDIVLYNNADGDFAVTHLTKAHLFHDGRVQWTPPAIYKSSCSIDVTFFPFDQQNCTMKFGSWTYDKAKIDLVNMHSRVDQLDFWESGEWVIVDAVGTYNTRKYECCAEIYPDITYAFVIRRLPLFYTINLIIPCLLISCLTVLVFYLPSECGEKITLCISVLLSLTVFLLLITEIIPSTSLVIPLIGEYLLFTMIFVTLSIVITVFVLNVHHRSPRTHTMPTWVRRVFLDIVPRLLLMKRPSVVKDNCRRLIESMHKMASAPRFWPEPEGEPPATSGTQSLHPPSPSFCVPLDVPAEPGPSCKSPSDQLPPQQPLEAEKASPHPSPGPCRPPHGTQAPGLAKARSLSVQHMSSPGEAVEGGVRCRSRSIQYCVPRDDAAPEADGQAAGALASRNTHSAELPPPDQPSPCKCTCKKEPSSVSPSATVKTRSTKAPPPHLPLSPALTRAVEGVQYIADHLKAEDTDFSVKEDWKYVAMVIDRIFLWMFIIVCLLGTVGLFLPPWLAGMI", "sequence (P17787 26-502)": "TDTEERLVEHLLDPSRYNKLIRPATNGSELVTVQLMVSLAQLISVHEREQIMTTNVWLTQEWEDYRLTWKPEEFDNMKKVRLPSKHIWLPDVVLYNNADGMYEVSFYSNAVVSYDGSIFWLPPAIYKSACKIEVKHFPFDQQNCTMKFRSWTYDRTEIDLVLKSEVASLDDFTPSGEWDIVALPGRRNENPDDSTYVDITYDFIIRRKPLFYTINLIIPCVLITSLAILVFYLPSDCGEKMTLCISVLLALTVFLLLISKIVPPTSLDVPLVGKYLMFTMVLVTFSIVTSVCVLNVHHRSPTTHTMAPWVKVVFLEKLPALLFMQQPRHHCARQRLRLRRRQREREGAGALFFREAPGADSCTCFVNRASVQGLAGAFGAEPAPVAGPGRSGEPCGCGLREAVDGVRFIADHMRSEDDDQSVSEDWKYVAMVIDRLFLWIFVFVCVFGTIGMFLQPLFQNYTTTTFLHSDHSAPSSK", "assay": "Binding to human α4β2 NNR (Ki)", "conditions": "read-out: Human α4β2 Ki", "description": "as §1"}, "Rat α4β2": {"biological_target": "Rat α4β2 (Rattus norvegicus, UniProt P09483+P12390)", "sequence (P09483 31-630)": "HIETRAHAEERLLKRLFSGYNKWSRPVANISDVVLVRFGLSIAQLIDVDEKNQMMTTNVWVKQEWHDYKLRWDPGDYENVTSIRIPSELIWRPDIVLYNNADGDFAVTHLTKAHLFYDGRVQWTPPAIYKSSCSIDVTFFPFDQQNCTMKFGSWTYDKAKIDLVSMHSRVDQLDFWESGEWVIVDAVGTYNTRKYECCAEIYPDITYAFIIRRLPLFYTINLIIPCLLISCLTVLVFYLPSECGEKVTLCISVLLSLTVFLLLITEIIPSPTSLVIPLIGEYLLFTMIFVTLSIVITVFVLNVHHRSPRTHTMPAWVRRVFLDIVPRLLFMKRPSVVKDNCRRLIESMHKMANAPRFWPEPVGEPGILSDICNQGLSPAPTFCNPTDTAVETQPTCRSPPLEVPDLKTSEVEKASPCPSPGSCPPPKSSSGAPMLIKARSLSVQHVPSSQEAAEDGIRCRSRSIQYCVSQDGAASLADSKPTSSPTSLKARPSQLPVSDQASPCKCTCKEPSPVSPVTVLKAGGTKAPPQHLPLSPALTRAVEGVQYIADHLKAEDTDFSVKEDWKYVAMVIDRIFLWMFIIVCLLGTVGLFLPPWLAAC", "sequence (P12390 25-500)": "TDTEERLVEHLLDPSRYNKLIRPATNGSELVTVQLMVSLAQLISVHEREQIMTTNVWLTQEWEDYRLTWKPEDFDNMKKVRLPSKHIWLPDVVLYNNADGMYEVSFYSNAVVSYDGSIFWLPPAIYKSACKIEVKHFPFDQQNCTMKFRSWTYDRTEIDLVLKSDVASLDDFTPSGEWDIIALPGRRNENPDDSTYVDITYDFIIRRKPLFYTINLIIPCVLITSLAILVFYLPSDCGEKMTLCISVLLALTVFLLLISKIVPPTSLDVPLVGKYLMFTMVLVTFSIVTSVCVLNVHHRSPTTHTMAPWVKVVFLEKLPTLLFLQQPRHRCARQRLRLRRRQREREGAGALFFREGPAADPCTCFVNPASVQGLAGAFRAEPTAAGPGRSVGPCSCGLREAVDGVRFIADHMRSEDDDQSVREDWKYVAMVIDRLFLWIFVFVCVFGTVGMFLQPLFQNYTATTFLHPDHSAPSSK", "assay": "Binding to rat α4β2 NNR (Ki)", "conditions": "read-out: Rat α4β2 Ki", "description": "as §1"}, "Human Muscle": {"biological_target": "Human Muscle (Homo sapiens, UniProt P02708+P07510+Q07001)", "sequence (P02708 21-457)": "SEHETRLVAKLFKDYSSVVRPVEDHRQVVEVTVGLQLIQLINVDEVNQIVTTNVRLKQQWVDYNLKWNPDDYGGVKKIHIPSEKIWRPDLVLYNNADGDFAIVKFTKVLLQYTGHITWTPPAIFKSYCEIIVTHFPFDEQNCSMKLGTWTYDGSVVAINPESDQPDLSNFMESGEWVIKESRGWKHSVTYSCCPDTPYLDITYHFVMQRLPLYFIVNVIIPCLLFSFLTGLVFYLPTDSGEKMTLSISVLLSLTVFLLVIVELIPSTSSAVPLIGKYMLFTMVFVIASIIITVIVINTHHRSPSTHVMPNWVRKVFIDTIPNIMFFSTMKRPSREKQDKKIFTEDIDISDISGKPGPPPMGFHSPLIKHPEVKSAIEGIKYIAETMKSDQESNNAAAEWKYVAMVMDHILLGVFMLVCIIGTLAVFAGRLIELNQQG", "sequence (P11230 24-501 partner)": "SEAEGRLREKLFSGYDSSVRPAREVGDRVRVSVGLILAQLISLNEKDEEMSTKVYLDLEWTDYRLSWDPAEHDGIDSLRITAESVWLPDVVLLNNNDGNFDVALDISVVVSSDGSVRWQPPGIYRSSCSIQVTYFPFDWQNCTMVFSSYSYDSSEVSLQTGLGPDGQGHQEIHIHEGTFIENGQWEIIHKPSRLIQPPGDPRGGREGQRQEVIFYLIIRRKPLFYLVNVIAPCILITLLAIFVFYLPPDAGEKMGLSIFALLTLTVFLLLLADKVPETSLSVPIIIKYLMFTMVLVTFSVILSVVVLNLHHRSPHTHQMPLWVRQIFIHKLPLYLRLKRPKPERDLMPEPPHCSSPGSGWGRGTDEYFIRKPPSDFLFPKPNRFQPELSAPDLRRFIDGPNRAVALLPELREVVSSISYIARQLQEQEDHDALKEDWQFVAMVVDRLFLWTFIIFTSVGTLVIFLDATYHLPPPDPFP", "sequence (P07510 23-517)": "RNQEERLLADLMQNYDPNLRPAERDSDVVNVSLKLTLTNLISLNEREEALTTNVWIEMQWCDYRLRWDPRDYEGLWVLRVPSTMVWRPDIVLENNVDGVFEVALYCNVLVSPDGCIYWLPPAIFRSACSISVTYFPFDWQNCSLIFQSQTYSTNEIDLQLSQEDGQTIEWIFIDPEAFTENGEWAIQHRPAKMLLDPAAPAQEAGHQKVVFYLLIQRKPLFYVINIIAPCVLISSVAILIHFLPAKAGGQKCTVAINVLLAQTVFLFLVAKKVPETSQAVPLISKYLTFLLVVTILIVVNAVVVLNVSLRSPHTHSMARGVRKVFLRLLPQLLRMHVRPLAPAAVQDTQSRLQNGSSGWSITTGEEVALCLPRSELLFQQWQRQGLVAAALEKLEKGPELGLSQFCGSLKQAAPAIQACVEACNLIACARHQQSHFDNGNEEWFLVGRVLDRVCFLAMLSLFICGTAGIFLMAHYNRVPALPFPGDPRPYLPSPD", "sequence (Q07001 22-517)": "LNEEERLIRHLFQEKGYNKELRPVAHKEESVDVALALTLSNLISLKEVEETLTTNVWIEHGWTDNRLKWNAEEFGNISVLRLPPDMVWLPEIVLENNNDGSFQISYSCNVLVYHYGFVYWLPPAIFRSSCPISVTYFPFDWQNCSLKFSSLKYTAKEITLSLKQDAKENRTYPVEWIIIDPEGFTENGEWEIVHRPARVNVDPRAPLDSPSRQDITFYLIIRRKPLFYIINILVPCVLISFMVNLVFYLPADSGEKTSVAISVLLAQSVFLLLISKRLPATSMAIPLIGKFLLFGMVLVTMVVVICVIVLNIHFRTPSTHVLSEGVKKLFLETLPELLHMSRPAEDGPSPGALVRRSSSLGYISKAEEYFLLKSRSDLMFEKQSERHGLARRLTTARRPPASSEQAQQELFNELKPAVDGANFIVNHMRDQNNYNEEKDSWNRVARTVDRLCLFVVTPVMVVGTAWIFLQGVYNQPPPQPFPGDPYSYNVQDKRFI", "assay": "Function at human muscle subtype, single point 100 μM", "type": "cell-based", "description": "as §1"}, "[3]": {"system": "non-selective peripheral muscarinic", "assay": "Standard receptor screen at 10 μM: non-selective peripheral muscarinic", "type": "binding", "conditions": "hydrochloride salt", "description": "(§2) Both Compound A, (R)-7-(3-pyridinyl)-1,7-diazaspiro[4.4]nonane, and Compound B, (S)-7-(3-pyridinyl)-1,7-diazaspiro[4.4]nonane, each as their hydrochloride salts, were screened, at 10 μM concentration, against a standard set of receptors. […] Thus, the two stereoisomers differentiate from one another in terms of their non-nicotinic receptor binding characteristics. This differentiation is believed to translate into a differentiation between the ability of each of (R)-7-(3-pyridinyl)-1,7-diazaspiro[4.4]nonane and (S)-7-(3-pyridinyl)-1,7-diazaspiro[4.4]nonane to treat various disease states, including, for example, the ability of Compound A to enhance desensitization of α4β2 NNRs."}, "human α4β2 NNRs": {"biological_target": "T1, human α4β2 NNRs (Homo sapiens, UniProt P17787+P43681)", "T1 construct": "expressed in transfected cells; host or cells: SH-EP1", "T1 sequence (P43681 29-627 limits assumed)": "as the sequence (P43681 29-627 limits assumed) above", "T1 sequence (P17787 26-502)": "as the sequence (P17787 26-502) above", "assay": "Function at human α4β2 NNRs, SH-EP1/human a4b2 cells, FLIPR calcium", "type": "cell-based", "conditions": "SH-EP1/human a4b2 cells, FLIPR calcium", "description": "as §1\nAfter the loading period, plates were equilibrated to room temperature and the cells exposed to the test article ([…]) or nicotine or buffer alone on a FLIPR (Molecular Devices). Fluorescence (at 485 nm) was monitored throughout the experiment. The test article change in fluorescence was compared to both a positive control (10 μM nicotine) and a negative control (buffer alone) to determine the percent response relative to that of nicotine."}, "non-elective sigma": {"system": "non-elective sigma", "assay": "Standard receptor screen at 10 μM: sigma", "type": "binding", "conditions": "hydrochloride salt", "description": "as §2"}, "rats": {"system": "rats", "assay": "Seizure/convulsion induction after acute dose, rats", "type": "in vivo", "conditions": "male rats; acute oral dose of 300 mg/kg", "description": "For example, preclinically, Compound C induced seizures following acute doses:\nLikewise, Compound B induced convulsion in 1/6 male rats following an acute oral dose of 300 mg/kg.\nIn fact, the effect of Compound A was not statistically different from the vehicle control."}, "histamine H3": {"biological_target": "histamine H3 (Homo sapiens, UniProt Q9Y5N1)", "assay": "Standard receptor screen at 10 μM: histamine H3", "type": "binding", "conditions": "hydrochloride salt, read-out: inhibition at histamine H3 receptors", "description": "as §2"}, "muscarinic M1": {"biological_target": "T2, muscarinic M1 (Homo sapiens, UniProt P11229)", "T2 sequence (P11229 1-460)": "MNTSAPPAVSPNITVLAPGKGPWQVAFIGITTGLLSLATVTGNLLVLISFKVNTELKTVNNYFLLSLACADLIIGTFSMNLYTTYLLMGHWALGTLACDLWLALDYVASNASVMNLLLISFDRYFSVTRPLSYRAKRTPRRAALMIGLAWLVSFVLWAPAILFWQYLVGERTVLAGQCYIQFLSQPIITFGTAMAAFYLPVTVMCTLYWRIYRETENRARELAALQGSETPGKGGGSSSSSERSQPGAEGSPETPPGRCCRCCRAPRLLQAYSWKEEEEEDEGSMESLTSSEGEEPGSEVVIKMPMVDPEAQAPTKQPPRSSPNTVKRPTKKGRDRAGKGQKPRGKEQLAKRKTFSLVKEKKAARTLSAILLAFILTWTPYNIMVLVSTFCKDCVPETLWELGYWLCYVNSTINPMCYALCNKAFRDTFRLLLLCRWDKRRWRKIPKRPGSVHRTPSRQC", "assay": "Standard receptor screen at 10 μM: muscarinic M1", "type": "binding", "conditions": "hydrochloride salt, read-out: inhibition at muscarinic M1 receptors", "description": "as §2"}, "[4]": {"assay": "Single rising dose (SRD) study of Compound C, plasma pharmacokinetics of racemate and enantiomers", "type": "in vivo", "conditions": "for t1/2 (mean) / Cmax / Tmax / AUC(0-inf) / half-life: plasma; for t1/2 (mean): Table 3; for Cmax / Tmax / AUC(0-inf) / half-life: human, po; for AUC(0-inf): read-out: AUCinf (mean); for half-life: read-out: Mean (SD) Terminal Elimination Half-life (converted)", "description": "A single, rising dose (SRD) study was performed with Compound C (the racemate). Plasma samples were analyzed for the content of the two enantiomers, Compound A (substantially pure R), Compound B (substantially pure S). Three dose groups (Compound C) were analyzed, 50, 100, and 400 mg, and four subjects were randomly selected from the 6 subjects tested to receive active treatment in each cohort examined in the SRD study."}, "nicotinic": {"system": "nicotinic", "assay": "Standard receptor screen at 10 μM: nicotinic", "type": "binding", "conditions": "hydrochloride salt", "description": "as §2"}, "[5]": {"system": "non-selective central muscarinic", "assay": "Standard receptor screen at 10 μM: non-selective central muscarinic", "type": "binding", "conditions": "hydrochloride salt", "description": "as §2"}, "A/J mice": {"system": "A/J mice", "assay": "Depression model, tail suspension (TS)", "type": "in vivo", "conditions": "20 mg/kg, 10 min test", "description": "On the day of the test, A/J mice were brought to acclimate to the testing room for one hour. Eight animals were tested in each run. Following pretreatment with vehicle, desipramine (20 mg/kg) or Compound A, p-hydroxybenzoate (0.1, 0.3, and 1 mg/kg), a piece of transparent (Scotch) tape was attached to the tail of each mouse from about mid-tail with approximately 2 cm of tape past the end of the tail. The mice were then placed in the tail suspension chambers (white polyvinylchloride cubicles measuring 33×33×31.75 cm; Med Associates Inc., St Albans, Vt.). The mice were suspended from the hook of the TS force transducer via the tail tape. The force transducer transmitted the movements of the mouse to a recording device connected to a computer. Immobility time, struggle time, and intensity were automatically recorded for each min during the 10 min test period. Upon completion of the TS test, the mice were returned to their home cage and then to the animal colony. The TS chambers were cleaned between sessions. Data were analyzed by repeated measures and one-way analysis of variance (ANOVA) followed by Fisher PLSD post-hoc comparisons. An effect was considered significant if p<0.05."}}, "note": "“And” between values parts separate entries of the source, which are not always exact repeats. Identical values can stand only once. Counter-ions that a name gives are not always drawn. Like-named read-outs stand apart in the source and are kept apart here.", "data": [{"smiles": "O=C(O)CCC(=O)O.c1cncc(N2CCC3(CCCN3)C2)c1", "note": "(stereo not drawn)", "values": [{"measurement": "melting point", "value": "131.5 to 133", "unit": "°C"}]}, {"smiles": "Cl.Cl.c1cncc(N2CCC3(CCCN3)C2)c1", "note": "(stereo not drawn)", "values": [{"measurement": "melting point", "value": "242 to 244", "unit": "°C"}]}, {"smiles": "O.O=C(O)C(=O)O.O=C(O)C(=O)O.c1cncc(N2CCC3(CCCN3)C2)c1", "note": "(stereo not drawn) (hydrate or solvate)", "values": [{"measurement": "melting point", "value": "200 to 201.5", "unit": "°C"}]}, {"smiles": "c1cncc(N2CCC3(CCCN3)C2)c1", "note": "(racemic) (as salt: hydrochloride) [Compound C, 7-(3-pyridinyl)-1,7-diazaspiro[4.4]nonane]", "values": [{"measurement": "melting point", "value": "227 to 232 °C and 227 to 233 °C"}]}, {"smiles": "O=C(O)c1ccc(O)cc1.c1cncc(N2CC[C@]3(CCCN3)C2)c1", "note": "[(R)-7-(3-pyridinyl)-1,7-diazaspiro[4.4]nonane mono-p-hydroxybenzoate]", "values": [{"measurement": "stability to humidity", "setting": "[1]; DVS", "value": "particularly stable to high humidity"}, {"measurement": "weight gain during the course of the DVS study", "setting": "[1]; increasing then decreasing humidity over about 10 h", "value": "less than 0.2 wt %"}]}, {"smiles": "c1cncc(N2CC[C@@]3(CCCN3)C2)c1", "note": "[Compound B, (S)-7-(3-pyridinyl)-1,7-diazaspiro[4.4]nonane]", "values": [{"measurement": "Ki", "setting": "Rat α7", "value": "> 10", "unit": "µM"}, {"measurement": "Human Ganglion SP (100 μM)", "setting": "Human Ganglion", "value": 18}, {"measurement": "Efficacy in multiple validated animal models of depression and anxiety", "setting": "[2]", "value": "failed to demonstrate activity"}, {"measurement": "Ki", "setting": "Human α4β2", "value": 30, "unit": "nM"}, {"measurement": "Ki", "setting": "Rat α4β2", "value": 82, "unit": "nM"}, {"measurement": "Human Muscle SP (100 μM)", "setting": "Human Muscle", "value": "<1"}, {"measurement": "inhibition at non-selective peripheral muscarinic receptors", "setting": "[3]", "value": 84, "unit": "% inhibition"}, {"measurement": "EC50", "setting": "human α4β2 NNRs; read-out: Human α4β2 EC50", "value": 3.9, "unit": "µM"}, {"measurement": "Emax", "setting": "human α4β2 NNRs; relative to 10 μM nicotine, read-out: Human α4β2 Emax (% of nic resp)", "value": 87, "unit": "%"}, {"measurement": "inhibition at non-elective sigma receptors", "setting": "non-elective sigma", "value": 56, "unit": "% inhibition"}, {"measurement": "induced convulsion (animals affected)", "setting": "rats", "value": "1/6"}, {"measurement": "inhibition at 10 µM", "setting": "histamine H3", "value": 58, "unit": "%"}, {"measurement": "inhibition at 10 µM", "setting": "muscarinic M1", "value": 53, "unit": "%"}, {"measurement": "t1/2 (mean)", "setting": "[4]; 50 mg Compound C (n = 4)", "value": 21.0, "unit": "h"}, {"measurement": "t1/2 (mean)", "setting": "[4]; 100 mg Compound C (n = 4)", "value": 17.8, "unit": "h"}, {"measurement": "t1/2 (mean)", "setting": "[4]; 400 mg Compound C (n = 4)", "value": 16.6, "unit": "h"}, {"measurement": "Cmax", "setting": "[4]; 50 mg Compound C (n = 4)", "value": 12.1, "unit": "ng/mL"}, {"measurement": "Tmax", "setting": "[4]; 50 mg Compound C (n = 4)", "value": 3.13, "unit": "h"}, {"measurement": "AUC(0-inf)", "setting": "[4]; 50 mg Compound C (n = 4)", "value": 237, "unit": "ng·h/mL"}, {"measurement": "half-life", "setting": "[4]; 50 mg Compound C (n = 4)", "value": 1260, "unit": "min"}, {"measurement": "Cmax", "setting": "[4]; 100 mg Compound C (n = 4)", "value": 24.6, "unit": "ng/mL"}, {"measurement": "Tmax", "setting": "[4]; 100 mg Compound C (n = 4)", "value": 2.75, "unit": "h"}, {"measurement": "AUC(0-inf)", "setting": "[4]; 100 mg Compound C (n = 4)", "value": 364, "unit": "ng·h/mL"}, {"measurement": "half-life", "setting": "[4]; 100 mg Compound C (n = 4)", "value": 1070, "unit": "min"}, {"measurement": "Cmax", "setting": "[4]; 400 mg Compound C (n = 4)", "value": 158, "unit": "ng/mL"}, {"measurement": "Tmax", "setting": "[4]; 400 mg Compound C (n = 4)", "value": 2, "unit": "h"}, {"measurement": "AUC(0-inf)", "setting": "[4]; 400 mg Compound C (n = 4)", "value": 2130, "unit": "ng·h/mL"}, {"measurement": "half-life", "setting": "[4]; 400 mg Compound C (n = 4)", "value": 996, "unit": "min"}, {"measurement": "share of total exposure (Cmax and AUCinf) compared to the racemate, Compound C", "setting": "[4]; oral administration of Compound C", "value": "approximately half"}, {"measurement": "inhibition at nicotinic receptors", "setting": "nicotinic", "value": 99, "unit": "% inhibition"}, {"measurement": "inhibition at non-selective central muscarinic receptors", "setting": "[5]", "value": 84, "unit": "% inhibition"}]}, {"smiles": "CNCCCN1c2ccccc2CCc2ccccc21", "note": "[desipramine, reference compound]", "values": [{"measurement": "struggle intensity compared to saline", "setting": "A/J mice", "value": "increased struggle intensity"}, {"measurement": "total time immobile compared to saline", "setting": "A/J mice", "value": "decreased total time immobile"}]}]}
